The compounds below were run against LONP1 (NM_004793.4) (Homo sapiens (Human), UniProt P36776) (assay: FRET-based assay for LONP1 protease activity using fluorogenic peptide substrate). Settings: LONP1 15 nM as monomer, substrate 3 μM, 1 hour at 37° C., 15 min pre-incubation with compound; average of a minimum of two repeats.
Format: biochemical
Protocol: Inhibition of LONP1 protease activity by an inhibitor compound of the disclosure elicits a decrease in the fluorescent signal.
The LONP1-containing mix (10 μL) was incubated with the test compound for 15 min at 37° C. before adding the peptide-containing mix (5 μL). Solutions were dispensed using a small cassette-Multidrop Combi (Thermo Scientific).
Each value is based on an average of a minimum of two repeats.

Sequence of LONP1 (NM_004793.4) (P36776 68-959): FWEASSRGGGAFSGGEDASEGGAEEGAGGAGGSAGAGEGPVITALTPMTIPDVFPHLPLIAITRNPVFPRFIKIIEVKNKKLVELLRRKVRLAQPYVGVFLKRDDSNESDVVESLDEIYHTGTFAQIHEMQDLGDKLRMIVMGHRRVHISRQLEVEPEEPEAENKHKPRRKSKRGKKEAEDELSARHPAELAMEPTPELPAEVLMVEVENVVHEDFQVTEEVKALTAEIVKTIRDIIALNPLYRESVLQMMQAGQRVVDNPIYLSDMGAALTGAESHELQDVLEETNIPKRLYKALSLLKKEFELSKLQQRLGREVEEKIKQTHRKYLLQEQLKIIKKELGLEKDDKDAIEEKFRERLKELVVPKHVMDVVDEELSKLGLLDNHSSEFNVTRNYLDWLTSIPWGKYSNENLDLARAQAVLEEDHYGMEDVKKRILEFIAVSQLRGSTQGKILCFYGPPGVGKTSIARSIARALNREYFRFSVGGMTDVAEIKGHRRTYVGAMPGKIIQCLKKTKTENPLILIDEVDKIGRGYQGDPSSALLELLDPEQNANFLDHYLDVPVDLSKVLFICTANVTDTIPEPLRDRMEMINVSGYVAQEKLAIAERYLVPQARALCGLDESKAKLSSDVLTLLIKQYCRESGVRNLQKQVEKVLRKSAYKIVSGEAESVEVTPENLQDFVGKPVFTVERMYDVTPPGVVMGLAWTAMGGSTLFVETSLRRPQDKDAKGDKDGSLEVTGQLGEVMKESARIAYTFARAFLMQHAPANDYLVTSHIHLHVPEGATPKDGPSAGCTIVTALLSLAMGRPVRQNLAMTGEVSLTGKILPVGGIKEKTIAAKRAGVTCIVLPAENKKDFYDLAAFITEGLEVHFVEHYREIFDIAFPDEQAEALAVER

| IC50 | Compound |
| --- | --- |
| 50 to 500 nM | CC(=O)N[C@H](CC(=O)N1CCOCC1)C(=O)N[C@@H](CCCc1ccccc1)B(O)O [Compound 11] |
| < 50 nM | O=C(N[C@H](CC(=O)N1CCOCC1)C(=O)N[C@@H](CCCc1ccccc1)B(O)O)c1cc(Cl)ccc1Cl [Compound 35, ((R)-1-((R)-2-(2,5-dichlorobenzamido)-4-morpholino-4-oxobutanamido)-4-phenylbutyl)boronic acid] |
| 50 to 500 nM | CCC[C@H](NC(=O)[C@@H](CC(=O)N1CCOCC1)NC(=O)c1cnccn1)B(O)O [Compound 18, ((R)-1-((R)-4-morpholino-4-oxo-2-(pyrazine-2-carboxamido)butanamido)butyl)boronic acid] |
| < 50 nM | O=C(N[C@@H](CCCc1ccccc1)B(O)O)[C@@H](CC(=O)N1CCOCC1)NS(=O)(=O)c1cccc(Cl)c1 [Compound 29, ((R)-1-((R)-2-((3-chlorophenyl)sulfonamido)-4-morpholino-4-oxobutanamido)-4-phenylbutyl)boronic acid] |
| 500 to 5000 nM | O=C(N[C@H](CC(=O)N1CCOCC1)C(=O)N[C@@H](Cc1ccccc1)B(O)O)c1cnccn1 [Compound 28, ((R)-1-((R)-4-morpholino-4-oxo-2-(pyrazine-2-carboxamido)butanamido)-2-phenylethyl) boronic acid] |
| 50 to 500 nM | O=C(N[C@@H](CCCc1ccccc1)B(O)O)[C@@H](CC(=O)N1CCOCC1)NC(=O)N1CC[C@@H](O)C1 [Compound 44, ((R)-1-((R)-2-((R)-3-hydroxypyrrolidine-1-carboxamido)-4-morpholino-4-oxobutanamido)-4-phenylbutyl)boronic acid] |
| 50 to 500 nM | CNC(=O)N[C@H](CC(=O)N1CCOCC1)C(=O)N[C@@H](CCCc1ccccc1)B(O)O [Compound 43, ((R)-1-((R)-2-(3-methylureido)-4-morpholino-4-oxobutanamido)-4-phenylbutyl)boronic acid] |
| 50 to 500 nM | O=C(N[C@@H](CCCc1ccccc1)B(O)O)[C@@H](CC(=O)N1CCOCC1)NC(=O)N1CC[C@H](O)C1 [Compound 45, ((R)-1-((R)-2-((S)-3-hydroxypyrrolidine-1-carboxamido)-4-morpholino-4-oxobutanamido)-4-phenylbutyl)boronic acid] |
| < 50 nM | O=C(N[C@@H](CCCc1ccccc1)B(O)O)[C@@H](CC(=O)N1CCOCC1)NS(=O)(=O)c1cc(Cl)ccc1Cl [Compound 37, ((R)-1-((R)-2-((2,5-dichlorophenyl)sulfonamido)-4-morpholino-4-oxobutanamido)-4-phenylbutyl)boronic acid] |
| < 50 nM | O=C(N[C@H](CC(=O)N1CCOCC1)C(=O)N[C@@H](CCCc1ccccc1)B(O)O)C1CCOCC1 [Compound 23, ((R)-1-((R)-4-morpholino-4-oxo-2-(tetrahydro-2H-pyran-4-carboxamido)butanamido)-4-phenylbutyl)boronic acid] |
| 50 to 500 nM | CC(C)NC(=O)N[C@H](CC(=O)N1CCOCC1)C(=O)N[C@@H](CCCc1ccccc1)B(O)O [Compound 38, ((R)-1-((R)-2-(3-isopropylureido)-4-morpholino-4-oxobutanamido)-4-phenylbutyl)boronic acid] |
| 50 to 500 nM | Cc1nc(C)c(C(=O)N[C@H](CC(=O)N2CCOCC2)C(=O)N[C@@H](CC(C)C)B(O)O)o1 [Compound 6, ((R)-1-((R)-2-(2,4-dimethyloxazole-5-carboxamido)-4-morpholino-4-oxobutanamido)-3-methylbutyl)boronic acid] |
| < 50 nM | O=C(N[C@H](CC(=O)N1CCOCC1)C(=O)N[C@@H](CCCc1ccccc1)B(O)O)O[C@H]1CCOC1 [Compound 32, ((R)-1-((R)-4-morpholino-4-oxo-2-(((((S)tetrahydrofuran-3-yl)oxy)carbonyl)amino)butanamido)-4-phenylbutyl)boronic acid] |
| 50 to 500 nM | O=C(N[C@@H](CCCc1ccccc1)B(O)O)[C@@H](CC(=O)N1CCOCC1)NC(=O)[C@H]1CCCCO1 [Compound 48, ((R)-1-((R)-4-morpholino-4-oxo-2-((R)-tetrahydro-2H-pyran-2-carboxamido)butanamido)-4-phenylbutyl)boronic acid] |
| > 5000 nM | O=C(N[C@H](CC(=O)N1CCOCC1)C(=O)N[C@H]1CCOB1O)c1cnccn1 [Compound 47, N—((R)-1-(((R)-2-hydroxy-1,2-oxaborolan-3-yl)amino)-4-morpholino-1,4-dioxobutan-2-yl)pyrazine-2-carboxamide] |
| 50 to 500 nM | O=C(N[C@@H](CCCc1ccccc1)B(O)O)[C@@H](CC(=O)N1CCOCC1)Nc1ccccc1 [Compound 46] |
| < 50 nM | O=C(N[C@H](CC(=O)N1CCOCC1)C(=O)N[C@@H](CCCc1ccccc1)B(O)O)O[C@@H]1CCOC1 [Compound 36, ((R)-1-((R)-4-morpholino-4-oxo-2-(((((R)-tetrahydrofuran-3-yl)oxy)carbonyl)amino)butanamido)-4-phenylbutyl)boronic acid] |
| 50 to 500 nM | CC(C)C[C@H](NC(=O)[C@@H](CC(=O)N1CCOCC1)NC(=O)c1cnccn1)B(O)O [Compound 3, ((R)-3-methyl-1-((R)-4-morpholino-4-oxo-2-(pyrazine-2-carboxamido)butanamido)butyl)boronic acid] |
| 50 to 500 nM | O=C(N[C@H](CC(=O)N1CCOCC1)C(=O)N[C@@H](CCc1ccccc1)B(O)O)c1cnccn1 [Compound 4, ((R)-1-((R)-4-morpholino-4-oxo-2-(pyrazine-2-carboxamido)butanamido)-3-phenylpropyl)boronic acid] |
| 50 to 500 nM | CC[C@H](NC(=O)[C@@H](CC(=O)N1CCOCC1)NC(=O)c1cnccn1)B(O)O [Compound 19, ((R)-1-((R)-4-morpholino-4-oxo-2-(pyrazine-2-carboxamido)butanamido)propyl)boronic acid] |
| 50 to 500 nM | O=C(N[C@@H](CCCc1ccccc1)B(O)O)[C@@H](CC(=O)N1CCOCC1)NCCc1ccccc1 [Compound 40, ((R)-1-((R)-4-morpholino-4-oxo-2-(phenethylamino)butanamido)-4-phenylbutyl)boronic acid] |
| 50 to 500 nM | O=C(N[C@H](CC(=O)N1CCOCC1)C(=O)N[C@@H](CCCc1ccccc1)B(O)O)[C@@H]1CCCCO1 [Compound 49, ((R)-1-((R)-4-morpholino-4-oxo-2-((S)-tetrahydro-2H-pyran-2-carboxamido)butanamido)-4-phenylbutyl)boronic acid] |
| 50 to 500 nM | O=C(N[C@@H](CCCc1ccccc1)B(O)O)[C@@H](CC(=O)N1CCOCC1)NC(=O)N1CCCC1 [Compound 42, ((R)-1-((R)-4-morpholino-4-oxo-2-(pyrrolidine-1-carboxamido)butanamido)-4-phenylbutyl)boronic acid] |
| < 50 nM | O=C(N[C@@H](CCCc1ccccc1)B(O)O)[C@H](CC(=O)N1CCOCC1)NS(=O)(=O)c1ccccc1 [Compound 33, ((R)-1-((S)-4-morpholino-4-oxo-2-(phenylsulfonamido)butanamido)-4-phenylbutyl)boronic acid] |
| < 50 nM | O=C(N[C@H](CC(=O)N1CCOCC1)C(=O)N[C@@H](CCCc1ccccc1)B(O)O)C1CCCCC1 [Compound 22, ((R)-1-((R)-2-(cyclohexanecarboxamido)-4-morpholino-4-oxobutanamido)-4-phenylbutyl)boronic acid] |
| 50 to 500 nM | O=C(N[C@@H](CCCc1ccccc1)B(O)O)[C@@H](CC(=O)N1CCOCC1)NS(=O)(=O)c1ccccc1Cl [Compound 30, ((R)-1-((R)-2-((2-chlorophenyl)sulfonamido)-4-morpholino-4-oxobutanamido)-4-phenylbutyl)boronic acid] |
| 50 to 500 nM | CCCC[C@H](NC(=O)[C@@H](CC(=O)N1CCOCC1)NC(=O)c1cnccn1)B(O)O [Compound 5, ((R)-1-((R)-4-morpholino-4-oxo-2-(pyrazine-2-carboxamido)butanamido)pentyl)boronic acid] |
| 50 to 500 nM | CN(C)C(=O)N[C@H](CC(=O)N1CCOCC1)C(=O)N[C@@H](CCCc1ccccc1)B(O)O [Compound 20] |
| 50 to 500 nM | O=C(N[C@@H](CCCc1ccccc1)B(O)O)[C@@H](CC(=O)N1CCOCC1)NCc1ccccc1 [Compound 31] |
| 50 to 500 nM | O=C(N[C@@H](CCCc1ccccc1)B(O)O)[C@@H](CC(=O)N1CCOCC1)NS(=O)(=O)c1cnccn1 [Compound 39, ((R)-1-((R)-4-morpholino-4-oxo-2-(pyrazine-2-sulfonamido)butanamido)-4-phenylbutyl)boronic acid] |

| Compound | IC50 |
| --- | --- |
| CC(C)(C)OC(=O)N(Cc1ccccc1)[C@H](CC(=O)N1CCOCC1)C(=O)N[C@@H](CCCc1ccccc1)B(O)O [Compound 34, ((R)-1-((R)-2-(benzyl(tert-butoxycarbonyl)amino)-4-morpholino-4-oxobutanamido)-4-phenylbutyl)boronic acid] | 500 to 5000 nM |
| CC(C)(C)OC(=O)N(CCc1ccccc1)[C@H](CC(=O)N1CCOCC1)C(=O)N[C@@H](CCCc1ccccc1)B(O)O [Compound 41, ((R)-1-((R)-2-((tert-butoxycarbonyl)(phenethyl)amino)-4-morpholino-4-oxobutanamido)-4-phenylbutyl)boronic acid] | 500 to 5000 nM |

Source: patent publication US20250059214A1, “AMIDE-CONTAINING LONP1 INHIBITOR COMPOUNDS, USES AND METHODS” (Pretzel Therapeutics, Inc., priority 2021, published 2025)
